We go through six compounds from patent US4363922A, “Esters of antibiotic nodusmicin” (priority 1981, dated 1982).

Values after ≈ are worked out from the molar mass of the structure shown.

For one assay, the system named is S.aureus UC-76. Nature of the assay: Minimum Inhibitory Concentration, microplate broth-dilution, S. aureus UC-76. The following applies: Staphylococcus aureus, UC76, read-out: MIC S.aureus UC-76.
What is called MIC is the lowest concentration that inhibits growth of the organism. As for `COC1CC2C=CC3C4OC2(C(C)=CC(C)C(C(C)O)OC1=O)C3C(O)C(C)C4OC(=O)c1ccco1` (stereo not drawn) [U-60,898, 9-O--Furoyl-], the minimum inhibitory concentration (MIC) was found to be 7.8 µg/mL (≈ 15.1 µM).

As for `COC1CC2C=CC3C4OC2(C(C)=CC(C)C(C(C)O)OC1=O)C3C(O)C(C)C4OC(=O)c1ccsc1` (stereo not drawn) [U-60,910, 9-O-Thiophene-3-carbonyl-nodusmicin], the MIC turned out to be 0.5 µg/mL (≈ 0.939 µM).

Turning to `COC1CC2C=CC3C4OC2(C(C)=CC(C)C(C(C)O)OC1=O)C3C(O)C(C)C4OC(=O)[C@@H]1CCCN1` (stereo partly drawn) [U-60,933, 9-O--L-Pyrolyl-], the MIC stood at 31.2 µg/mL (≈ 60 µM).

Consider `COC1CC2C=CC3C4OC2(C(C)=CC(C)C(C(C)O)OC1=O)C3C(O)C(C)C4OC(=O)c1cccs1` (stereo not drawn) [U-60,989, 9-O--Thiophene-2-carbonyl-], for which the MIC was found to be 3.9 µg/mL (≈ 7.32 µM).

In the case of `COC1CC2C=CC3C4OC2(C(C)=CC(C)C(C(C)O)OC1=O)C3C(O)C(C)C4OC(=O)c1ccc(C)[nH]1` (stereo not drawn) [U-61,265, 9-O--5-Methylpyrrole-2-carbonyl], the minimal inhibitory concentration (MIC) is 31.2 µg/mL (≈ 58.9 µM).

Staying with this assay, now noted: Staphylococcus aureus, UC76, read-out: MIC S.aureus UC-76, BHI broth; sensitive strain.
For the compound `COC1CC2C=CC3C4OC2(C(C)=CC(C)C(C(C)O)OC1=O)C3C(O)C(C)C4O` (stereo not drawn) [U-59,761, nodusmicin], the minimal inhibitory concentration (MIC) worked out at 125 µg/mL (≈ 296 µM).

For a further assay, the system named is S.aureus UC-746. Kind of assay: Minimum Inhibitory Concentration, microplate broth-dilution, S. aureus UC-746. As to conditions: Staphylococcus aureus, UC746, read-out: MIC S.aureus UC-746.
Take `COC1CC2C=CC3C4OC2(C(C)=CC(C)C(C(C)O)OC1=O)C3C(O)C(C)C4OC(=O)c1ccco1` (stereo not drawn) [U-60,898, 9-O--Furoyl-]: the minimum inhibitory concentration (MIC) is 7.8 µg/mL (≈ 15.1 µM).

Take `COC1CC2C=CC3C4OC2(C(C)=CC(C)C(C(C)O)OC1=O)C3C(O)C(C)C4OC(=O)c1ccsc1` (stereo not drawn) [U-60,910, 9-O-Thiophene-3-carbonyl-nodusmicin]: the MIC was determined as 0.5 µg/mL (≈ 0.939 µM).

Regarding `COC1CC2C=CC3C4OC2(C(C)=CC(C)C(C(C)O)OC1=O)C3C(O)C(C)C4OC(=O)[C@@H]1CCCN1` (stereo partly drawn) [U-60,933, 9-O--L-Pyrolyl-], the minimum inhibitory concentration (MIC) turned out to be 62.5 µg/mL (≈ 120 µM).

Take `COC1CC2C=CC3C4OC2(C(C)=CC(C)C(C(C)O)OC1=O)C3C(O)C(C)C4OC(=O)c1cccs1` (stereo not drawn) [U-60,989, 9-O--Thiophene-2-carbonyl-]: the minimum inhibitory concentration (MIC) is 3.9 µg/mL (≈ 7.32 µM).

Turning to `COC1CC2C=CC3C4OC2(C(C)=CC(C)C(C(C)O)OC1=O)C3C(O)C(C)C4OC(=O)c1ccc(C)[nH]1` (stereo not drawn) [U-61,265, 9-O--5-Methylpyrrole-2-carbonyl], the MIC was 31.2 µg/mL (≈ 58.9 µM).

The same assay, now with this note: Staphylococcus aureus, UC746, read-out: MIC S.aureus UC-746, BHI broth; strain resistant to tetracycline.
`COC1CC2C=CC3C4OC2(C(C)=CC(C)C(C(C)O)OC1=O)C3C(O)C(C)C4O` (stereo not drawn) [U-59,761, nodusmicin]: the MIC is 250 µg/mL (≈ 592 µM).

In the next assay the test system is Mycobacterium avium. Nature of the assay: Antibiotic activity against Mycobacterium avium. The class given is cell-based.
Conditions: not given
As to `COC1CC2C=CC3C4OC2(C(C)=CC(C)C(C(C)O)OC1=O)C3C(O)C(C)C4O` (stereo not drawn) [U-59,761, nodusmicin], the “activity against Mycobacterium avium” value is “active”.

The next assay deals with S. lutea. Kind of assay: Antibiotic activity against S. lutea. The format is cell-based.
Conditions: not given
Take `COC1CC2C=CC3C4OC2(C(C)=CC(C)C(C(C)O)OC1=O)C3C(O)C(C)C4O` (stereo not drawn) [U-59,761, nodusmicin]: the “activity against S. lutea” value is listed as “active”.

Another assay concerns C. perfringens.
Test: not given
The format is cell-based.
Conditions: not given
For the compound `COC1CC2C=CC3C4OC2(C(C)=CC(C)C(C(C)O)OC1=O)C3C(O)C(C)C4O` (stereo not drawn) [U-59,761, nodusmicin], the “activity against C. perfringens” value is “active”.

For a further assay, the system named is S.aureus UC 80. Nature of the assay: Dipped disc agar diffusion assay, S. aureus. As to conditions: Staphylococcus aureus, UC80, 16 h, read-out: Agar Diffusion 1 mg./ml. S.aureus UC 80 (inhibition zone). For orientation: In agar diffusion tests the substance spreads into inoculated agar from a disc or well.
With `COC1CC2C=CC3C4OC2(C(C)=CC(C)C(C(C)O)OC1=O)C3C(O)C(C)C4OC(=O)c1ccco1` (stereo not drawn) [U-60,898, 9-O--Furoyl-], the zone of inhibition at 1000 µg/mL was determined as 30 mm.

For the compound `COC1CC2C=CC3C4OC2(C(C)=CC(C)C(C(C)O)OC1=O)C3C(O)C(C)C4OC(=O)[C@@H]1CCCN1` (stereo partly drawn) [U-60,933, 9-O--L-Pyrolyl-], the zone of inhibition at 1000 µg/mL amounted to 16 mm.

`COC1CC2C=CC3C4OC2(C(C)=CC(C)C(C(C)O)OC1=O)C3C(O)C(C)C4OC(=O)c1cccs1` (stereo not drawn) [U-60,989, 9-O--Thiophene-2-carbonyl-]: the zone of inhibition at 1000 µg/mL is 27 mm.

For `COC1CC2C=CC3C4OC2(C(C)=CC(C)C(C(C)O)OC1=O)C3C(O)C(C)C4OC(=O)c1ccc(C)[nH]1` (stereo not drawn) [U-61,265, 9-O--5-Methylpyrrole-2-carbonyl], the zone of inhibition at 1000 µg/mL was 20 mm.

Staying with this assay, now noted: Staphylococcus aureus, UC80, 16 h, read-out: Agar Diffusion 1 mg./ml. S.aureus UC 80 (inhibition zone), 1 mg./ml.; 12.7 mm paper disc; 16 hours.
For the compound `COC1CC2C=CC3C4OC2(C(C)=CC(C)C(C(C)O)OC1=O)C3C(O)C(C)C4OC(=O)c1ccsc1` (stereo not drawn) [U-60,910, 9-O-Thiophene-3-carbonyl-nodusmicin], the zone of inhibition at 1000 µg/mL worked out at 35 mm.

The same assay, now with this note: Staphylococcus aureus, UC80, 16 h, read-out: zone of inhibition, S. aureus, 1 mg./ml.; 0.5 inch disc; agar tray; strain not stated.
Take `COC1CC2C=CC3C4OC2(C(C)=CC(C)C(C(C)O)OC1=O)C3C(O)C(C)C4OC(=O)c1ccsc1` (stereo not drawn) [U-60,910, 9-O-Thiophene-3-carbonyl-nodusmicin]: the zone of inhibition at 1000 µg/mL stood at 35 mm.

For the next assay, the system named is B. fragilis. Kind of assay: Antibiotic activity against B. fragilis. The format is cell-based.
Conditions: not given
For `COC1CC2C=CC3C4OC2(C(C)=CC(C)C(C(C)O)OC1=O)C3C(O)C(C)C4O` (stereo not drawn) [U-59,761, nodusmicin], the “activity against B. fragilis” value is listed as “active”.

For another assay, the system named is S.pyrogenes UC-152. Nature of the assay: Minimum Inhibitory Concentration, microplate broth-dilution, S. pyrogenes UC-152. The following applies: read-out: MIC S.pyrogenes UC-152.
Regarding `COC1CC2C=CC3C4OC2(C(C)=CC(C)C(C(C)O)OC1=O)C3C(O)C(C)C4OC(=O)c1ccco1` (stereo not drawn) [U-60,898, 9-O--Furoyl-], the minimal inhibitory concentration (MIC) is above 250 µg/mL.

On to `COC1CC2C=CC3C4OC2(C(C)=CC(C)C(C(C)O)OC1=O)C3C(O)C(C)C4OC(=O)[C@@H]1CCCN1` (stereo partly drawn) [U-60,933, 9-O--L-Pyrolyl-], for which the minimal inhibitory concentration (MIC) was above 250 µg/mL.

On to `COC1CC2C=CC3C4OC2(C(C)=CC(C)C(C(C)O)OC1=O)C3C(O)C(C)C4OC(=O)c1cccs1` (stereo not drawn) [U-60,989, 9-O--Thiophene-2-carbonyl-], for which the MIC turned out to be 125 µg/mL (≈ 235 µM).

Turning to `COC1CC2C=CC3C4OC2(C(C)=CC(C)C(C(C)O)OC1=O)C3C(O)C(C)C4OC(=O)c1ccc(C)[nH]1` (stereo not drawn) [U-61,265, 9-O--5-Methylpyrrole-2-carbonyl], the minimal inhibitory concentration (MIC) was 125 µg/mL (≈ 236 µM).

The same assay, now with this note: read-out: MIC S.pyrogenes UC-152, BHI broth.
Turning to `COC1CC2C=CC3C4OC2(C(C)=CC(C)C(C(C)O)OC1=O)C3C(O)C(C)C4O` (stereo not drawn) [U-59,761, nodusmicin], the minimum inhibitory concentration (MIC) came out at 500 µg/mL (≈ 1180 µM).

In the case of `COC1CC2C=CC3C4OC2(C(C)=CC(C)C(C(C)O)OC1=O)C3C(O)C(C)C4OC(=O)c1ccsc1` (stereo not drawn) [U-60,910, 9-O-Thiophene-3-carbonyl-nodusmicin], the minimal inhibitory concentration (MIC) was determined as 125 µg/mL (≈ 235 µM).

A further assay relates to S.aureus UC-570. Kind of assay: Minimum Inhibitory Concentration, microplate broth-dilution, S. aureus UC-570. As to conditions: Staphylococcus aureus, UC570, read-out: MIC S.aureus UC-570.
With `COC1CC2C=CC3C4OC2(C(C)=CC(C)C(C(C)O)OC1=O)C3C(O)C(C)C4OC(=O)c1ccco1` (stereo not drawn) [U-60,898, 9-O--Furoyl-], the minimal inhibitory concentration (MIC) came to 7.8 µg/mL (≈ 15.1 µM).

Consider `COC1CC2C=CC3C4OC2(C(C)=CC(C)C(C(C)O)OC1=O)C3C(O)C(C)C4OC(=O)c1ccsc1` (stereo not drawn) [U-60,910, 9-O-Thiophene-3-carbonyl-nodusmicin], for which the minimum inhibitory concentration (MIC) is 0.25 µg/mL (≈ 0.469 µM).

Take `COC1CC2C=CC3C4OC2(C(C)=CC(C)C(C(C)O)OC1=O)C3C(O)C(C)C4OC(=O)[C@@H]1CCCN1` (stereo partly drawn) [U-60,933, 9-O--L-Pyrolyl-]: the minimal inhibitory concentration (MIC) was found to be 62.5 µg/mL (≈ 120 µM).

Consider `COC1CC2C=CC3C4OC2(C(C)=CC(C)C(C(C)O)OC1=O)C3C(O)C(C)C4OC(=O)c1cccs1` (stereo not drawn) [U-60,989, 9-O--Thiophene-2-carbonyl-], for which the minimal inhibitory concentration (MIC) worked out at 3.9 µg/mL (≈ 7.32 µM).

As to `COC1CC2C=CC3C4OC2(C(C)=CC(C)C(C(C)O)OC1=O)C3C(O)C(C)C4OC(=O)c1ccc(C)[nH]1` (stereo not drawn) [U-61,265, 9-O--5-Methylpyrrole-2-carbonyl], the minimal inhibitory concentration (MIC) was determined as 31.2 µg/mL (≈ 58.9 µM).

Staying with this assay, now noted: Staphylococcus aureus, UC570, read-out: MIC S.aureus UC-570, BHI broth; sensitive strain.
Regarding `COC1CC2C=CC3C4OC2(C(C)=CC(C)C(C(C)O)OC1=O)C3C(O)C(C)C4O` (stereo not drawn) [U-59,761, nodusmicin], the MIC was determined as 250 µg/mL (≈ 592 µM).

The subject of the next assay is S.lutea UC-130. Kind of assay: Dipped disc agar diffusion assay, S. lutea. As to conditions: Micrococcus luteus, UC130, 16 h, read-out: Agar Diffusion 1 mg./ml. S.lutea UC-130 (inhibition zone).
For `COC1CC2C=CC3C4OC2(C(C)=CC(C)C(C(C)O)OC1=O)C3C(O)C(C)C4O` (stereo not drawn) [U-59,761, nodusmicin], the zone of inhibition at 1000 µg/mL amounted to 40 mm.

As for `COC1CC2C=CC3C4OC2(C(C)=CC(C)C(C(C)O)OC1=O)C3C(O)C(C)C4OC(=O)c1ccco1` (stereo not drawn) [U-60,898, 9-O--Furoyl-], the zone of inhibition at 1000 µg/mL worked out at 40 mm.

For `COC1CC2C=CC3C4OC2(C(C)=CC(C)C(C(C)O)OC1=O)C3C(O)C(C)C4OC(=O)c1ccsc1` (stereo not drawn) [U-60,910, 9-O-Thiophene-3-carbonyl-nodusmicin], the zone of inhibition at 1000 µg/mL was 40 mm.

On to `COC1CC2C=CC3C4OC2(C(C)=CC(C)C(C(C)O)OC1=O)C3C(O)C(C)C4OC(=O)[C@@H]1CCCN1` (stereo partly drawn) [U-60,933, 9-O--L-Pyrolyl-], for which the zone of inhibition at 1000 µg/mL was 38 mm.

As for `COC1CC2C=CC3C4OC2(C(C)=CC(C)C(C(C)O)OC1=O)C3C(O)C(C)C4OC(=O)c1cccs1` (stereo not drawn) [U-60,989, 9-O--Thiophene-2-carbonyl-], the zone of inhibition at 1000 µg/mL is 41 mm.

Consider `COC1CC2C=CC3C4OC2(C(C)=CC(C)C(C(C)O)OC1=O)C3C(O)C(C)C4OC(=O)c1ccc(C)[nH]1` (stereo not drawn) [U-61,265, 9-O--5-Methylpyrrole-2-carbonyl], for which the zone of inhibition at 1000 µg/mL was 30 mm.

The same assay, now with this note: Micrococcus luteus, UC130, 16 h, read-out: zone of inhibition, S. lutea.
On to `COC1CC2C=CC3C4OC2(C(C)=CC(C)C(C(C)O)OC1=O)C3C(O)C(C)C4OC(=O)c1ccsc1` (stereo not drawn) [U-60,910, 9-O-Thiophene-3-carbonyl-nodusmicin], for which the zone of inhibition at 1000 µg/mL worked out at 40 mm.

The next assay concerns K. pneumoniae. Nature of the assay: Antibiotic activity against K. pneumoniae.
Conditions: not given
The format is cell-based.
Consider `COC1CC2C=CC3C4OC2(C(C)=CC(C)C(C(C)O)OC1=O)C3C(O)C(C)C4O` (stereo not drawn) [U-59,761, nodusmicin], for which the “activity against K. pneumoniae” value is on record as “active”.
